The subject of data set [1] is HBV. Conditions: cited from earlier work; for anti-HBV activity: unpublished results.
In data set [2] the test system is HBV. Put plainly: HBV antiviral assay in HepG2.2.15 cells. The format is cell-based, hepatitis B virus. The following applies: for effect of addition of 10uM mevalonate on anti-HBV effect: 10uM mevalonate added.
Data set [3] in a line: Cytotoxicity by neutral red dye uptake in HepG2.2.15 cultures. The format is cell-based. The following applies: human, HepG2.2.15 cells.
Another data set concerns HepG2.2.15. The data set is described as above. The format is cell-based. Conditions: Table 2; monotherapy; neutral red uptake 24 hours after last treatment.
The conditions of data set [4]: ref Reddy et al., 2008; cited from earlier work.
The test system of another data set is HBV surface antigen. The following applies: Hep3B cell line with integrated S gene coding region; ref Lin et al., 2003; cited from earlier work.
[5] abbreviates: Hepatitis B virus, HepG2.2.15, Table 2 (separate experiment), monotherapy.
Setting [6] is: Table 2 (separate experiment), monotherapy.

Each structure is given as a SMILES string. Entries after “also recorded” stand apart in the source; their conditions may differ. Read-outs that look alike come from different tables or passages of the source.

Regarding `CC(C)n1c(/C=C/C(O)CC(O)CC(=O)O)c(-c2ccc(F)cc2)c2ccccc21` (stereo not drawn) [fluvastatin], the anti-HBV activity result in the data set on HBV [1] (ref Korba) is reported as “unable to make other statins work against HBV”.

Take `CCC(C)(C)C(=O)O[C@H]1C[C@@H](C)C=C2C=C[C@H](C)[C@H](CC[C@@H]3C[C@@H](O)CC(=O)O3)[C@H]21` [SIM, simvastatin]: the “effect of addition of 10uM mevalonate on anti-HBV effect” value with HBV [2] was “abolished the anti-HBV effect; also recorded: abolished the anti-HBV effectiveness”. Further, in the data set with HBV [2] (setting [5]), the 50% effective concentration (EC50) came out at 2.8 ± 0.3 µM and the 90% effect concentration (EC90) was 8.1 ± 0.7 µM. The ED90 with HBV [2] (SIM alone, cell culture) came to 8.6 µM. Further, in data set [3], the cytotoxic concentration (CC50) at 9 days was above 300 µM.

Take `CC(O)(CCO)CC(=O)O` (stereo not drawn) [Mevalonate]: in the data set with HBV [2] (setting [6]), the concentration for a half-maximal effect (EC50) is above 10 µM and the EC90 is above 10 µM. Further, in the data set with HBV [2] (monotherapy), the anti-HBV effect result is on record as “did not display an anti-HBV effect”. The same molecule displayed a CC50 in the data set on HepG2.2.15 above 10 µM.

For the molecule `Nc1ncnc2c1ncn2CCOCP(=O)(O)O` [ADV, adefovir], the liver/serum ratios in data set [4] is 0.38.

In the case of `Nc1ccn([C@@H]2CS[C@H](CO)O2)c(=O)n1` [LMV, lamivudine], in the data set on HBV [2], the “effect of addition of 10uM mevalonate on anti-HBV effect” value is given as “did not affect the anti-HBV effectiveness; also recorded: nor did it reduce the anti-HBV effectiveness”. In the data set with HBV [2] (setting [5]), this molecule had an EC50 of 0.048 ± 0.005 µM and an EC90 of 0.146 ± 0.017 µM. Moreover, it took 2320 ± 102 µM to reach half-maximal cytotoxicity in data set [3] (CC50 at 9 days).

As to `CC[C@H](C)C(=O)O[C@H]1C[C@@H](C)C=C2C=C[C@H](C)[C@H](CC[C@@H]3C[C@@H](O)CC(=O)O3)[C@H]21` [lovastatin], the “in vitro production of surface antigen inhibited” value in the data set on HBV surface antigen was 60%. In the data set on HBV [1] (ref Lin et al., 2003), the “anti-HBV activity (HBV virions in cell culture)” value is “unable to make other statins work against HBV; also recorded: could not demonstrate reduction of HBV virions”.

Turning to `CC[C@H](C)C(=O)O[C@H]1C[C@H](O)C=C2C=C[C@H](C)[C@H](CC[C@@H](O)C[C@@H](O)CC(=O)O)[C@H]21` [pravastatin], the anti-HBV activity entry in the data set on HBV [1] (ref Bader) is on record as “unable to make other statins work against HBV”.

Broadly, the EC50 is the concentration giving half of the maximal effect. The EC90 is the concentration at which the effect reaches the 90% level. A lower EC90 goes with an effect from little substance. As a reminder, the CC50 is the concentration at which the toxic effect on the cells reaches its halfway point. A low value points to harm at low concentration.

The record behind these values is paper PMC2869246 (Antiviral research, 2010).
